Tests used:
[1] = tested on: RASFCs; experiment: Synovial fibroblast assay, IL-6 ELISA; format: cell-based, human; conditions: RASFCs treated with TNF (10 ng/ml), 200 μm compound, supernatants at 72 hr, n=3, DMSO vehicle = 100%
Procedure: Synovial Fibroblast Assay
To assess the compounds in human rheumatoid arthritis samples the following protocol was employed:
Isolation of Primary Fibroblasts: RA synovial biopsies were digested with 1 mg/ml collagenase type 1 (Worthington Biochemical, Freehold, NJ, USA) in RPMI-1640 (Gibco-BRL, Paisley, UK) for 4 hr at 37° C. in humidified air with 5% CO2. Dissociated cells were grown to confluence in RPMI 1640, 10% FCS (Gibco-BRL), 10 ml of 1 mmol/l HEPES (Gibco-BRL), penicillin (100 units/ml; Bioscience), streptomycin (100 units/ml; Bioscience) and fungizone (0.25 μg/ml; Bioscience) before passaging. Cells were used between passages 3-8.
Compounds (200 μm) were tested on n=3 RASFCs
RASFCs were grown to 80% confluency in 48 well plates. RASFCs were treated with TNF (10 ng/ml) in the presence of 200 μm of each compound. Media was replaced after 24 h and fresh media and compound was added. Cell supernatants were collected at 72 hr time point. DMSO treated cells were used as a vehicle control (Red dotted line represents DMSO control).
IL-6 ELISA: Levels of pro-inflammatory cytokine IL6 were measured in cultured RASFC supernatants by specific ELISA (R&D systems, UK) according to manufacturer's conditions.
This assay measures the production of IL-6 as an indication of immune system activation: the lower the value the better from the point of view of alleviating RA symptoms. […]

[2] = molecular target: T1, queuine-tRNA ribosyltransferase enzyme complex (hQTRT1:hQTRT2) (Homo sapiens, UniProt Q9BXR0); experiment: [8-14C] guanine displacement assay (TGT substrate); format: biochemical; conditions: 50 μM compound, 30 mins at 37° C., ≥5% is considered a positive substrate for TGT
T1 construct: polyhistidine (N); made in house; host or cells: E. coli BL21(DE3) tgt::Kmr
Procedure: Compounds capable of acting as a queuine-tRNA ribosyltransferase enzyme complex substrate may be identified by use of a displacement assay as described below:
Production of [8-^14C] Guanine Labeled tRNA (tRNA*)
Before adding the 8-[^14C] guanine solution to the reaction the solution was neutralised with an equal volume (vol/vol) 0.01 M NaOH, as the [8-^14C] Guanine is supplied in 0.01 M HCl aqueous solution. In vitro synthesised human tyrosyl tRNA was prepared by T7 transcription in ultrapure nuclease-free water as described previously (Alqasem et al., 2020). Recombinant human QTRT1 enzyme containing an N-terminal polyhistidine tag and human QTRT2 containing a C-terminal TEV-Strep-Tag®II tag were produced in BL21(DE3) tgt::Kmr cells as described previously (Alqasem et al., 2020).
The reaction was incubated for 1 hour at 37° C. […] The tRNA* pellet was resuspended in 30 μL nuclease-free water and the concentration measured spectrophotometrically at A260. […]
After 30 mins the reactions were quenched by mixing with 2.5 ml ice-cold 10% trichloroacetic acid (TCA) and placed on ice for one hour to precipitate the tRNA. […] The vacuum manifold was disassembled, the filters recovered and dried again at room temperature before being placed in scintillation vials containing 10 ml of Ecoscint A and radioactivity levels measured by scintillation counting. […]

T1 sequence (Q9BXR0 whole entry): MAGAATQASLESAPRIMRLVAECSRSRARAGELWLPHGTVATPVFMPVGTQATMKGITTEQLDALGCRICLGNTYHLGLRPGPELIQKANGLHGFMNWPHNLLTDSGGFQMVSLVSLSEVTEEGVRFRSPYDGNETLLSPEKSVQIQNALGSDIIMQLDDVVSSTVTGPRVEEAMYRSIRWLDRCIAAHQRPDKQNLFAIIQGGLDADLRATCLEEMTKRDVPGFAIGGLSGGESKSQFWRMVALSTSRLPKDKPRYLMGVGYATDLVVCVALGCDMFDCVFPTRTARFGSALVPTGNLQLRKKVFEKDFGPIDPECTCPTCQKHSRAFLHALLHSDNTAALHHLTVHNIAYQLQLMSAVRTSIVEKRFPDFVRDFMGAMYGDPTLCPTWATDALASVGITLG
T1 sequence (Q9H974 whole entry partner): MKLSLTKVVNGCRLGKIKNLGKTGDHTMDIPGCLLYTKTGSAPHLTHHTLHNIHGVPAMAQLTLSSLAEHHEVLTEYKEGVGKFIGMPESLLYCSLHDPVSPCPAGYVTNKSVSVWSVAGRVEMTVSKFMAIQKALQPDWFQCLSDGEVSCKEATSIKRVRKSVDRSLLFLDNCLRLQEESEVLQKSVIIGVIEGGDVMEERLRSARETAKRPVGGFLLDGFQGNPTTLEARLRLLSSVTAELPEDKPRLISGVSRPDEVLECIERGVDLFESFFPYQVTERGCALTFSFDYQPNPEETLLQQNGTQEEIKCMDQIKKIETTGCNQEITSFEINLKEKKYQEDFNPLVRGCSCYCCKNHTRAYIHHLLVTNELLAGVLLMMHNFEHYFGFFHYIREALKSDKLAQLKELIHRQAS

displacement of the [14C] guanine [2]	SMILES	Level of IL6 expression compared to vehicle [1]
–	Nc1nc2[nH]cc(CNOCCc3ccccc3)c2c(=O)[nH]1 [Example 1, 2-Amino-5-((phenethoxyamino)methyl)-3,7-dihydro-4H-pyrrolo[2,3-d]pyrimidin-4-one]	Reduction to 17%
–	CO/N=C/c1c[nH]c2nc(N)[nH]c(=O)c12 [Example 2, 2-Amino-4-oxo-4,7-dihydro-3H-pyrrolo[2,3-d]pyrimidine-5-carbaldehyde O-methyl oxime]	Reduction to 15%
–	Nc1nc2[nH]cc(/C=N/O)c2c(=O)[nH]1 [Example 4, 2-Amino-4-oxo-4,7-dihydro-3H-pyrrolo[2,3-d]pyrimidine-5-carbaldehyde oxime]	Reduction to 15%
–	C[C@@H]1CCN(C(=O)CC#N)C[C@@H]1N(C)c1ncnc2[nH]ccc12 [Tofacitinib, reference compound]	Reduction to 58%
> 98%	Nc1nc2[nH]cc(CN[C@H]3C=C[C@H](O)[C@@H]3O)c2c(=O)[nH]1 [queuine base, queuine]	–

From US12643901B2, “Compounds” (The Provost, Fellows, Foundation Scholars, and the other …, priority 2020, dated 2026)
